In patent US12390437B2, “Itaconic acid derivatives and uses thereof intreating an inflammatory disease or a disease associated with an undesirable immune response” (Sitryx Therapeutics Limited, priority 2019, dated 2025):

tested on: IL-1β cytokine output from THP-1s; assay: THP-1 AlphaLISA IL-1β cytokine assay; format: cell-based, human; settings: Homo sapiens, THP-1, PMA-differentiated THP-1 cells, LPS 24 hr then Nigericin 1 hour; read-out: IL-1β (IC50)
Outline: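 AlphaLISA read-out of cytokine released into supernatants of differentiated THP-1 cells. Cells were PMA-treated for 72 h, exposed to compound for 30 min, stimulated with LPS for 24 h, then given nigericin for 1 h before harvest. IC50 values come from normalised concentration-response curves.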

Row | IC50 [µM] | Compound
1 | 73.8 | C=C(CC(=O)OCc1ccc(F)cc1)C(=O)OCC(=O)O [Example 93, 2-((4-((4-fluorobenzyl)oxy)-2-methylene-4-oxobutanoyl)oxy)acetic acid]
2 | 2.1 | C=C(CC(=O)OCCCCCCCC)C(=O)OCC(=O)N(C)CC(=O)O [Example 98, 2-(N-methyl-2-((2-methylene-4-(octyloxy)-4-oxobutanoyl)oxy)acetamido)acetic acid]
3 | 1.9 | C=C(CC(=O)OCCCCCCCC)C(=O)OCC(=O)N1CCC[C@H]1C(=O)O [Example 99, (2-((2-methylene-4-(octyloxy)-4-oxobutanoyl)oxy)acetyl)-L-proline]

tested on: IL-6 cytokine output from THP-1s; assay: THP-1 AlphaLISA IL-6 cytokine assay; format: cell-based, human; settings: Homo sapiens; PMA-differentiated THP-1 cells, LPS 24 hr then Nigericin 1 hour
Procedure: Measuring Inhibitory Effects on IL-1β and IL-6 Cytokine Output from THP-1s
The cytokine inhibition profiles of compounds of formula (IW-1) were determined in a differentiated THP-1 cell assay. All assays were performed in RPMI-1640 growth medium (Gibco), supplemented with 10% fetal bovine serum (FBS; Gibco), 1% penicillin-streptomycin and 1% sodium pyruvate unless specified otherwise. The IL-1β and IL-6 cytokine inhibition assays were each run in a background of differentiated THP-1 cells as described below. All reagents described were from Sigma-Aldrich unless specified otherwise. Compounds were prepared as 10 mM DMSO stocks.
THP-1 cells were expanded as a suspension up to 80% confluence in appropriate growth medium. Cells were harvested, suspended, and treated with an appropriate concentration of phorbol 12-myristate 13-acetate (PMA) over a 72 hr period (37° C./5% CO2).
Following 72 hrs of THP-1 cell incubation, cellular medium was removed and replaced with fresh growth media containing 1% of FBS. Working concentrations of compounds were prepared separately in 10% FBS treated growth medium and pre-incubated with the cells for 30 minutes (37° C./5% CO2). Following the 30 minute compound pre-incubation, THP-1s were treated with an appropriate concentration of LPS and the THP-1s were subsequently incubated for a 24 hr period (37° C./5% CO2). An appropriate final concentration of Nigericin was then dispensed into the THP-1 plates and incubated for 1 hour (37° C./5% CO2) before THP-1 supernatants were harvested and collected in separate polypropylene 96-well holding plates.
Reagents from each of the IL-1β and IL-6 commercial kits (Perkin Elmer) were prepared and run according to the manufacturer's instructions. Subsequently, fluorescence signal detection in a microplate reader was measured (EnVision® Multilabel Reader, Perkin Elmer).
Percentage inhibition was calculated per cytokine by normalising the sample data to the high and low controls used within each plate (+/−LPS respectively). Percentage inhibition was then plotted against compound concentration and the 50% inhibitory concentration (IC50) was determined from the resultant concentration-response curve.

Row | IC50 [µM] | Compound
4 | 28.1 | C=C(CC(=O)OCc1ccc(F)cc1)C(=O)OCC(=O)O [Example 93, 2-((4-((4-fluorobenzyl)oxy)-2-methylene-4-oxobutanoyl)oxy)acetic acid]
5 | 4.3 | C=C(CC(=O)OCCCCCCCC)C(=O)OCC(=O)N(C)CC(=O)O [Example 98, 2-(N-methyl-2-((2-methylene-4-(octyloxy)-4-oxobutanoyl)oxy)acetamido)acetic acid]
6 | 2.5 | C=C(CC(=O)OCCCCCCCC)C(=O)OCC(=O)N1CCC[C@H]1C(=O)O [Example 99, (2-((2-methylene-4-(octyloxy)-4-oxobutanoyl)oxy)acetyl)-L-proline]

tested on: NRF2; assay: NRF2 +/-GSH activation assay (DiscoverX PathHunter NRF2 translocation kit, U2OS cells); format: cell-based; settings: Homo sapiens, U2OS; normalised to dimethyl fumarate 'High' control; GSH condition not stated in Table 5; read-out: NRF2 activation Emax
Procedure: Measuring Compound Activation Effects on the Anti-Inflammatory Transcription Factor NRF2 in DiscoverX PathHunter NRF2 Translocation Kit
Potency and efficacy of compounds of formula (IW-1) against the target of interest to activate NRF2 (nuclear factor erythroid 2-related factor 2) were determined using the PathHunter NRF2 translocation kit (DiscoverX). The NRF2 translocation assay was run using an engineered recombinant cell line, utilising enzyme fragment complementation to determine activation of the Keap1-NRF2 protein complex and subsequent translocation of NRF2 into the nucleus. Enzyme activity was quantified using a chemiluminescent substrate consumed following the formation of a functional enzyme upon PK-tagged NRF2 translocation into the nucleus.
The assay was run under either +/−GSH (glutathione) conditions to determine the attenuating activities of GSH against target compounds.
Additionally, a defined concentration of dimethyl fumarate was used as the ‘High’ control to normalise test compound activation responses to.
U2OS PathHunter eXpress cells were thawed from frozen prior to plating. Following plating, U2OS cells were incubated for 24 hrs (37° C./5% CO2) in commercial kit provided cell medium.
Following 24 hrs of U2OS incubation, cells were directly treated with an appropriate final concentration of compound, for −GSH conditions, or for +GSH conditions, an intermediate plate containing 6× working concentrations of compound stocks was prepared in a 6 mM working concentration of GSH solution (solubilised in sterile PBS). Following a 30 minute compound-GSH pre-incubation (37° C./5% CO2) for +GSH treatment, plated U2OS cells were incubated with an appropriate final concentration of compound and GSH.
Following compound (+/−GSH) treatment, the U2OS plates were incubated for a further 6 hours (37° C./5% CO2) before detection reagent from the PathHunter NRF2 commercial kit was prepared and added to test plates according to the manufacturer's instructions. Subsequently, the luminescence signal detection in a microplate reader was measured (PHERAstar®, BMG Labtech).
Percentage activation was calculated by normalising the sample data to the high and low controls used within each plate (+/−DMF). Percentage activation/response was then plotted against compound concentration and the 50% activation concentration (EC50) was determined from the plotted concentration-response curve.

Row | Compound | Emax [%]
7 | C=C(CC(=O)OCc1ccc(F)cc1)C(=O)OCC(=O)O [Example 93, 2-((4-((4-fluorobenzyl)oxy)-2-methylene-4-oxobutanoyl)oxy)acetic acid] | 118
8 | C=C(CC(=O)OCCCCCCCC)C(=O)OCC(=O)N(C)CC(=O)O [Example 98, 2-(N-methyl-2-((2-methylene-4-(octyloxy)-4-oxobutanoyl)oxy)acetamido)acetic acid] | 193
9 | C=C(CC(=O)OCCCCCCCC)C(=O)OCC(=O)N1CCC[C@H]1C(=O)O [Example 99, (2-((2-methylene-4-(octyloxy)-4-oxobutanoyl)oxy)acetyl)-L-proline] | 227

same assay, conditions: Homo sapiens; U2OS PathHunter cells, 6 hours; GSH condition not stated in Table 5; read-out: NRF2 activation EC50

Row | EC50 [µM] | Compound
10 | 36 | C=C(CC(=O)OCc1ccc(F)cc1)C(=O)OCC(=O)O [Example 93, 2-((4-((4-fluorobenzyl)oxy)-2-methylene-4-oxobutanoyl)oxy)acetic acid]
11 | 14.7 | C=C(CC(=O)OCCCCCCCC)C(=O)OCC(=O)N(C)CC(=O)O [Example 98, 2-(N-methyl-2-((2-methylene-4-(octyloxy)-4-oxobutanoyl)oxy)acetamido)acetic acid]
12 | 37.6 | C=C(CC(=O)OCCCCCCCC)C(=O)OCC(=O)N1CCC[C@H]1C(=O)O [Example 99, (2-((2-methylene-4-(octyloxy)-4-oxobutanoyl)oxy)acetyl)-L-proline]
